The target in test [1] is Calcium/calmodulin-dependent protein kinase type 1G (Homo sapiens) (UniProt Q96NX5). Description: Selectivity interaction (KinomeScan (DiscoverX)) EUB0000666a CAMK1G. The following applies: at 10 µM.
In test [2] the target is Myosin light chain kinase 2, skeletal/cardiac muscle (Homo sapiens) (UniProt Q9H1R3). The experiment in a line: Selectivity interaction (KinomeScan (DiscoverX)) EUB0000607a MYLK2. The following applies: at 10 µM.
The target of test [3] is Protein kinase C beta type (Homo sapiens, UniProt P05771). The experiment in a line: Selectivity interaction (Kinase screening (Nanosyn)) EUB0000604a PRKCB.
Test [4] deals with Serine/threonine-protein kinase 33 (Homo sapiens) (UniProt Q9BYT3). The experiment in a line: Selectivity interaction (Kinase panel (Invitrogen)) EUB0000639a STK33. The following applies: at 200 nM.
The target in test [5] is T1, Dual specificity mitogen-activated protein kinase kinase 4 (Homo sapiens) (UniProt P45985).
T1 sequence (whole entry): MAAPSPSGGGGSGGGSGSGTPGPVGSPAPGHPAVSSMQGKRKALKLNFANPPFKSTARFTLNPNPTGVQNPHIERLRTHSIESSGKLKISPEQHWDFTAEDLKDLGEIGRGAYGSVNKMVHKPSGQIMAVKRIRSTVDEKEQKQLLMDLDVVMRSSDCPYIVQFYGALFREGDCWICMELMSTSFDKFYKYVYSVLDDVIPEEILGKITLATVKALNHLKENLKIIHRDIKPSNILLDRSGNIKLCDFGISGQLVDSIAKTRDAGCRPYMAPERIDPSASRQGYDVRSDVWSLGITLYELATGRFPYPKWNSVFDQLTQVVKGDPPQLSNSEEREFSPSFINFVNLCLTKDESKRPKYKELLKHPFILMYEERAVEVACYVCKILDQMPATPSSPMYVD
Description: Selectivity interaction (KinomeScan (DiscoverX)) EUB0000045b MAP2K4.

Test [6] deals with Cyclin-dependent kinase 8 (Homo sapiens, UniProt P49336). The experiment in a line: Selectivity interaction (KinomeScan (DiscoverX)) EUB0000045b CDK8.
A further test concerns the target Adenosine receptor A2a (Homo sapiens, UniProt P29274). Description: Selectivity interaction (Safety Panel 44tm (Eurofins)) EUB0000162b ADORA2A. As to conditions: at 10 µM.
Test [7] addresses T2, Serine/threonine-protein kinase Nek10 (Homo sapiens) (UniProt Q6ZWH5).
T2 sequence (whole entry): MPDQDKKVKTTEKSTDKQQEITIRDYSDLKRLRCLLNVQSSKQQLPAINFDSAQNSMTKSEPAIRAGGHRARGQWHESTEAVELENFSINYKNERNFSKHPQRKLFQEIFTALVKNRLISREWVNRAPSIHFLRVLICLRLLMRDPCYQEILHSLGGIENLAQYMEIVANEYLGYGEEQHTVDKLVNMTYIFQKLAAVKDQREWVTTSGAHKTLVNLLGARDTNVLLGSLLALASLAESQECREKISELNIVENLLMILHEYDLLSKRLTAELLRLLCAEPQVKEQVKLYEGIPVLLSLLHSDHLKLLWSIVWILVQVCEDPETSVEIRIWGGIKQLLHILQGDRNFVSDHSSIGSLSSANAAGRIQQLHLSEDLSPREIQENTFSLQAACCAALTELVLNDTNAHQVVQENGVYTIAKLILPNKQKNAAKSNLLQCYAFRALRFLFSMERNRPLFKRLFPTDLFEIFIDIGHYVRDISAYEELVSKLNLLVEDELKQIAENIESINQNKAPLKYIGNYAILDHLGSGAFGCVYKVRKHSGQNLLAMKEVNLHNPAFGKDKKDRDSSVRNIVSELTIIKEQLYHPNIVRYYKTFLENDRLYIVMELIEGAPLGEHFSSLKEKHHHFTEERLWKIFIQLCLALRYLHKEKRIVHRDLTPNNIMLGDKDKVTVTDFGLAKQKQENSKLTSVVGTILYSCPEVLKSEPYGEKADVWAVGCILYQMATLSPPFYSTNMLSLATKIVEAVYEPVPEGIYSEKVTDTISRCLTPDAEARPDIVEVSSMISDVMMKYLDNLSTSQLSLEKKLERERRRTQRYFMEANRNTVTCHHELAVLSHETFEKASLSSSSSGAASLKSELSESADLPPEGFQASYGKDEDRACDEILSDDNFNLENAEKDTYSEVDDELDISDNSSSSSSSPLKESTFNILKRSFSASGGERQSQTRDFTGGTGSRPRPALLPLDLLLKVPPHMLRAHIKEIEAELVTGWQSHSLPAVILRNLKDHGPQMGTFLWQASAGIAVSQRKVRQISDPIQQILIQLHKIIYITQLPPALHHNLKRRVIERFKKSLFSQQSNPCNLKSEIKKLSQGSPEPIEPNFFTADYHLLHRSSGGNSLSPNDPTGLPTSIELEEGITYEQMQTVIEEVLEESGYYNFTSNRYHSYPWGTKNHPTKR
Description: Selectivity interaction (KinomeScan (DiscoverX)) EUB0001049a NEK10. As to conditions: at 1 µM.

For test [8], the target named is Dual specificity protein kinase CLK3 (Homo sapiens, UniProt P49761). The experiment in a line: Selectivity interaction (Kinase panel (DSF assay)) EUB0001558a CLK3.
For test [9], the target named is Serine/threonine-protein kinase 38-like (Homo sapiens) (UniProt Q9Y2H1). The experiment in a line: Selectivity interaction (Kinase panel (DSF assay)) EUB0001558a STK38L.
Test [10] deals with 3',5'-cyclic-AMP phosphodiesterase 4B (Homo sapiens) (UniProt Q07343). Description: Selectivity interaction (Panel of kinases, GPCRs, ion channels and transporters (enzymatic assay)) EUB0000266bCl PDE4B.
3',5'-cyclic-AMP phosphodiesterase 4B (Homo sapiens), sequence (Q07343 whole entry): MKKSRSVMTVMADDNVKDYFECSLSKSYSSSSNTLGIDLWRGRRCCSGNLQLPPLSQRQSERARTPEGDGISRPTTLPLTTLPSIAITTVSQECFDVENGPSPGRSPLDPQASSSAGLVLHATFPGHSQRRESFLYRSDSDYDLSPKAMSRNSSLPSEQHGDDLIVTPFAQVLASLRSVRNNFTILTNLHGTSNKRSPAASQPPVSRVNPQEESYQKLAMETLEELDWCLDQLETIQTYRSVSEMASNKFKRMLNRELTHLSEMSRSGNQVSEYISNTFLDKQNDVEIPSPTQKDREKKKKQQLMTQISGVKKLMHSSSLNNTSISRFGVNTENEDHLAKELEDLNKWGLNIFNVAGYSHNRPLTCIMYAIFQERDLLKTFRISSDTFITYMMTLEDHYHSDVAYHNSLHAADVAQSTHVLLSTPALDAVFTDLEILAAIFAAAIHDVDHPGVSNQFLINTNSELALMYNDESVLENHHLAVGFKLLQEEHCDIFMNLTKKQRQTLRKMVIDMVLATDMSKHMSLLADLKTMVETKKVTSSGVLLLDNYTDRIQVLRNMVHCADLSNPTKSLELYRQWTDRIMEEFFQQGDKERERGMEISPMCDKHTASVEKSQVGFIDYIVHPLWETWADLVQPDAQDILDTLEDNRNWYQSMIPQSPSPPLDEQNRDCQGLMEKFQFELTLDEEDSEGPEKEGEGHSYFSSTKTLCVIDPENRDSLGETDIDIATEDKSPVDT

Cyclin-dependent kinase 8, sequence (P49336 whole entry): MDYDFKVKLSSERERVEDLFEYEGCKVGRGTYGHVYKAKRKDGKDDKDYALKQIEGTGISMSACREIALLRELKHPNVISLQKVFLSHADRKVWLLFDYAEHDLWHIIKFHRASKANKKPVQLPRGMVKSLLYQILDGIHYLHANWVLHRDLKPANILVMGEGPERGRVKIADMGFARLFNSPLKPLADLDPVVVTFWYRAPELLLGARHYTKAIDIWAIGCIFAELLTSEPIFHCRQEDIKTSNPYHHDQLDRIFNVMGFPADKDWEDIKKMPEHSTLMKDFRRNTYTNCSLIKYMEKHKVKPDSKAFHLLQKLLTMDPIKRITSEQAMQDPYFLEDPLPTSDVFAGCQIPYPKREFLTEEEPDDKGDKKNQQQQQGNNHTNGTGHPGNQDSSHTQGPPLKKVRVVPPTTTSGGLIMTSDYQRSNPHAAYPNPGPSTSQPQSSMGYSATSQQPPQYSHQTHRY
Serine/threonine-protein kinase 33 (Homo sapiens), sequence (Q9BYT3 whole entry, looked up): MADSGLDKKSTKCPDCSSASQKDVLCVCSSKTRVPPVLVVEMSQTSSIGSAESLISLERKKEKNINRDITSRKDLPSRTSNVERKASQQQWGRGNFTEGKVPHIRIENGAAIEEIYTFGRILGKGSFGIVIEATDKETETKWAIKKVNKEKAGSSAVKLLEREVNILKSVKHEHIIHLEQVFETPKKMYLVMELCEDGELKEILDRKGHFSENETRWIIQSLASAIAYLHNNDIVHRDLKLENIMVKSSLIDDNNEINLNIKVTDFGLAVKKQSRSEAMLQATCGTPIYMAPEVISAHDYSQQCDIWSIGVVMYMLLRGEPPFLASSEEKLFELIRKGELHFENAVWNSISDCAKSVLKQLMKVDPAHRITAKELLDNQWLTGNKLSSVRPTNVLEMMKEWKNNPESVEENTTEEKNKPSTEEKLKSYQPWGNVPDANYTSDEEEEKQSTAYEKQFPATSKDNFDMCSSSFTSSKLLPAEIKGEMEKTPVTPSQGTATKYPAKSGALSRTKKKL
Protein kinase C beta type, sequence (P05771 2-671 limits assumed): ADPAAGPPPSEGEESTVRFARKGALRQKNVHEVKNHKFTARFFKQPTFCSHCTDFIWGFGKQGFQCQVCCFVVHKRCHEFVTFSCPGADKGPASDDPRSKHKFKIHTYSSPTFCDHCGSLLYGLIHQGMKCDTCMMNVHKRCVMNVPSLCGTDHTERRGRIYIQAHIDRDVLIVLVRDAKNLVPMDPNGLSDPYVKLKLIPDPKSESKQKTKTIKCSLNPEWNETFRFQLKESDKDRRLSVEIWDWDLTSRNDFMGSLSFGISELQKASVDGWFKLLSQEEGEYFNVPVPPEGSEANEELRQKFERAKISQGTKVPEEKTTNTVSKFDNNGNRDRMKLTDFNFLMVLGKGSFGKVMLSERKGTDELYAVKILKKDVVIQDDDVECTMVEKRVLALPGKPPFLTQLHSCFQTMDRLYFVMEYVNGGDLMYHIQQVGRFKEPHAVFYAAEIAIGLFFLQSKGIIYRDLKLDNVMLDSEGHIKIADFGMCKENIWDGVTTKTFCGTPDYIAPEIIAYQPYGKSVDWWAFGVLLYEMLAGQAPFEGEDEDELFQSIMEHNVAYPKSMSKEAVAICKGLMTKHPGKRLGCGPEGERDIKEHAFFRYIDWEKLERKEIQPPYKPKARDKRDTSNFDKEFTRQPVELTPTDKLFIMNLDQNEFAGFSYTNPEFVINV
Calcium/calmodulin-dependent protein kinase type 1G (Homo sapiens), sequence (Q96NX5 whole entry): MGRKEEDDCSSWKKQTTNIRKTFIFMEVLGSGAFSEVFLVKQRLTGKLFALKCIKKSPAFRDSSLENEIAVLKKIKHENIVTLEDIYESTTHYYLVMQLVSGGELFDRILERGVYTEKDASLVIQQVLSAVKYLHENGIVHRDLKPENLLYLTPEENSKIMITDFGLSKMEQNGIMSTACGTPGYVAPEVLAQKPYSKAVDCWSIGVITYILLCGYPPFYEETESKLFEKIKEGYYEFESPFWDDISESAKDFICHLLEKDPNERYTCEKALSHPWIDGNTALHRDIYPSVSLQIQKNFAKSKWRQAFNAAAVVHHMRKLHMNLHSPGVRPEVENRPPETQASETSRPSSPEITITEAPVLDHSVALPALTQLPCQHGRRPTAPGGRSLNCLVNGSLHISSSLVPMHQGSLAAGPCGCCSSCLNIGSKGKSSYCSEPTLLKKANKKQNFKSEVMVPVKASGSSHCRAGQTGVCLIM
Serine/threonine-protein kinase 38-like (Homo sapiens), sequence (Q9Y2H1 2-464 limits assumed): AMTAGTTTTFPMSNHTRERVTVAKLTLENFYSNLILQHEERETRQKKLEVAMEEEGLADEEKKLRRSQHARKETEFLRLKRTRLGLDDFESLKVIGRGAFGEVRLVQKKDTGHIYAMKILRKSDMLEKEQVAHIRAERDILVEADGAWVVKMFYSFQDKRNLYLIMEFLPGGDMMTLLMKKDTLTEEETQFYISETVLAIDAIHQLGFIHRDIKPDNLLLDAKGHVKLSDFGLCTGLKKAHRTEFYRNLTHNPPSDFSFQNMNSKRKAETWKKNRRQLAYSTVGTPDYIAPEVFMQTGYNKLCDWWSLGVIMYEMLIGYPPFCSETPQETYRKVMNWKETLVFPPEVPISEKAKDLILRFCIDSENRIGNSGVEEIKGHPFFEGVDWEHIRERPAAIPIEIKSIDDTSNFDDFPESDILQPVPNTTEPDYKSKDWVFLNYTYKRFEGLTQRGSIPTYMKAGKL
Myosin light chain kinase 2, skeletal/cardiac muscle (Homo sapiens), sequence (Q9H1R3 whole entry): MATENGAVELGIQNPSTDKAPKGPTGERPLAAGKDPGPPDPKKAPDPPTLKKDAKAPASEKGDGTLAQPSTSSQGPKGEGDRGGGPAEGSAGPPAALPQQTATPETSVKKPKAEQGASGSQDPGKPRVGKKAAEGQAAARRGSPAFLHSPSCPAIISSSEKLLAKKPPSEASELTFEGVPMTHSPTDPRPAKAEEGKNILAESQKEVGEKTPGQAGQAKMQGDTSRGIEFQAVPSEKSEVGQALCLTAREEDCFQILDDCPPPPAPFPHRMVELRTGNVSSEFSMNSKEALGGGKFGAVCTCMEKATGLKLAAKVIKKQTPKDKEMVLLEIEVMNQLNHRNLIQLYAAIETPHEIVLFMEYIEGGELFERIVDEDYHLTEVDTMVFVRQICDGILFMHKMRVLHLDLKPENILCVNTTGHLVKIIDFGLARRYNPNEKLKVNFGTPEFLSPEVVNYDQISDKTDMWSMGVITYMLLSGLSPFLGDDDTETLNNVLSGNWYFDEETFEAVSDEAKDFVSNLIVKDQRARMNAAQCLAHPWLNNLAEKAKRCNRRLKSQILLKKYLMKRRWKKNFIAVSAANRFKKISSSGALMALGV
Dual specificity protein kinase CLK3, sequence (P49761 whole entry, looked up): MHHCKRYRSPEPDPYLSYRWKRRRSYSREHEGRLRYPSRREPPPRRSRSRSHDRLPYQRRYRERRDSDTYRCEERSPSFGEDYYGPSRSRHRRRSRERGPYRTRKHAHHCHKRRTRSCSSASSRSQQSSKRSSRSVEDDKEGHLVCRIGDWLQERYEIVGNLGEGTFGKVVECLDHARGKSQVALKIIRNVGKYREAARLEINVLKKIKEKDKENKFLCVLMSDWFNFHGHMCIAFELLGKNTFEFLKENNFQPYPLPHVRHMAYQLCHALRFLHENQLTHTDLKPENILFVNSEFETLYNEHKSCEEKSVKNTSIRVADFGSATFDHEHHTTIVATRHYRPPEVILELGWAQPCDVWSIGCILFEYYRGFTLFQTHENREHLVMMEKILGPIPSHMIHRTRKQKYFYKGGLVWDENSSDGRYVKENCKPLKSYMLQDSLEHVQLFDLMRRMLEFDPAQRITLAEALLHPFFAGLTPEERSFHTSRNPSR
Adenosine receptor A2a, sequence (P29274 whole entry): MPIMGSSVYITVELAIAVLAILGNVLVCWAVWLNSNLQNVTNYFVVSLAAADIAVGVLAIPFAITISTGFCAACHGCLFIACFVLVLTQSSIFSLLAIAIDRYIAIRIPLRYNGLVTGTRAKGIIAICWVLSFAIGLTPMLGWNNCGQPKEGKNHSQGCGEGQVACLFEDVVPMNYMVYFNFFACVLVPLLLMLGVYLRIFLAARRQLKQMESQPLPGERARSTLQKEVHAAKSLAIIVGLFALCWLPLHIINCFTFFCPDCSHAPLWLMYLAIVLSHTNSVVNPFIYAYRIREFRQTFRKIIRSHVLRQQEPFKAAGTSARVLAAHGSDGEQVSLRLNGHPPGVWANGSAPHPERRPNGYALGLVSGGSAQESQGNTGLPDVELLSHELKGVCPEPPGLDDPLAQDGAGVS

In the case of `O=C(NOC[C@H](O)CO)c1ccc(F)c(F)c1Nc1ccc(I)cc1F`, the % of control in test [1] was determined as 100%.

For `CNC(=O)Nc1ccc(-c2nc(N3CC4CCC(C3)O4)c3cnn(C4CCC5(CC4)OCCO5)c3n2)cc1`, the % of control in test [2] came out at 100%.

`Cc1cnc(Nc2ccc(F)cc2Cl)nc1-c1c[nH]c(C(=O)N[C@H](CO)c2cccc(Cl)c2)c1`: in test [3], the % of inhibition came to 4%.

`CC[C@@H]1[C@H](F)C(=O)N[C@@H]1COc1nccc2cc(C(N)=O)c(OC)cc12` [ZIMLOVISERTIB] had a % of inhibition in test [4] of 6.96%.

Consider `C=CC(=O)Nc1cc(-n2c(=O)ccc3cnc4ccc(-c5ccc(NS(C)(=O)=O)cc5)cc4c32)ccc1C`, for which the % of control in [5] (at 1 µM) was 100%; in test [5] (at 10 µM) it was 4.9%; in [6] (at 1 µM), 76%; in [6] (at 10 µM), 62%.

For the molecule `CN(C)C(=O)Cn1cc(-c2ccc(-c3cncc4ccccc34)cc2)cn1`, on Adenosine receptor A2a, the % of control was found to be 85%.

Take `COc1cc(Nc2nc(C)cc(-c3cnn4nc(OC)ccc34)n2)cc(C(F)(F)F)c1`: in [7], the % of control turned out to be 100%.

Take `CC(C)(O)[C@H](F)CN1Cc2cc(NC(=O)c3cnn4cccnc34)c(N3CCOCC3)cc2C1=O`: the dTM in test [8] is 1.3 K; in test [9], -0.2 K.

In [10], `CCn1c(-c2nc3cc(C(=O)N4CCCC(N)C4)ccc3n2C)cc2ccccc21` (stereo not drawn) returned a pXC50 of 4.6 M.

The values are drawn from ChEMBL document CHEMBL5465560, “Selectivity Literature for EUbOPEN Chemogenomic Library” (2024).
